According to patent publication US12419875B2, “Use of Axitinib and analogs thereof in preparing blood-brain barrier permeability regulator” (ZHEJIANG UNIVERSITY, priority 2018, dated 2025):

Tests used:
Claudin-5 = assay: Pathological blood-brain barrier Transwell model (bEnd.3 co-incubated with U87 MG), Claudin-5 immunofluorescence; format: cell-based; settings: bEnd.3/U87 MG co-incubation, 24 hours; FIG. 8
Protocol: A transwell model of co-incubation of brain microvascular endothelial cells bEnd.3 and glioma cells U87 MG simulates a pathological blood-brain barrier. Axitinib was allowed to act on the Transwell chamber. After 24 hours, immunofluorescent staining was performed on bEnd.3 cells on the Transwell chamber membrane. A physiological blood-brain barrier simulated by a Transwell model of brain microvascular endothelial cell bEnd.3 was used as a positive control group. […] Panel B is the result of fluorescence semi-quantitative analysis of Claudin-5 expression by Image J (n=3).
Axitinib was added to the Transwell chamber. After the drug was allowed to act for 24 hours, the Transwell cell with bEnd.3 cells grown was transferred to another 12-well plate, washed with PBS for three times, fixed with 4% formaldehyde, and blocked with 10% bovine serum albumin for 30 minutes. Thereafter, Claudin-5 primary antibody was added and incubated at 4° C. overnight, and finally was incubated with fluorescently-labeled secondary antibody for 1 hour. The nucleus was counterstained with DAPI.

U87 MG glioma cells = assay: Cell survival rate by tetrazolium blue colorimetry, U87 MG cells; format: cell-based; settings: U87MG cells, 10 μM (therapeutic dose); FIGS. 13 and 14
Protocol: FIG. 13: Evaluation of cell survival rate in a Transwell model. A Transwell model of co-incubation of brain microvascular endothelial cells bEnd.3 and glioma cells U87 MG simulates a pathological blood-brain barrier. Axitinib (10 μM) and an Axitinib analog of phosphatidylinositol kinase (PI3K) inhibitor LY294002 (10 μM) were added into the Transwell chamber. After 24 hours, the survival rate of bEnd.3 cells in the Transwell chamber (Panel A) and U87 MG cells in the Transwell outer chamber (Panel B) were detected by tetrazolium blue colorimetry (n=3).
FIG. 14: Evaluation of Cytotoxicity for Axitinib and an analog thereof. […] Cell survival rate was detected by tetrazolium blue colorimetry. […]
The physiological blood-brain barrier and the pathological blood-brain barrier as constructed in Method 1 and Method 2 in the Example 1 were used as models, respectively. […] Absorbance at 570 nm was measured with a microplate reader. The survival rate of cells was calculated according to the following formula: Survival rate of cells (%)=(absorbance value of a test group/absorbance value of a control group)×100%
In addition, bEnd.3 cells and U87 MG glioma cells were used as model cells to evaluate the cytotoxicity of Axitinib and an Axitinib analog of phosphatidylinositol kinase (PI3K) inhibitor LY294002 with the tetrazolium blue colorimetric method. […] Absorbance at 570 nm was measured with a microplate reader.

[1] = test system: pathological blood-brain barrier (bEnd.3 cells with tumor cell culture); assay: Tumor cell culture co-incubated with bEnd.3 cells (U87MG removed), cell transmembrane resistance; format: cell-based; settings: tumor cell culture kept, 10 μM, 24 hours, FIG. 15
Protocol: FIG. 15: Co-incubation of a tumor cell culture and bEnd.3 cells in vitro, regulation of blood-brain barrier permeability by Axitinib and an analog thereof, and determination of a cell transmembrane resistance. A Transwell model of co-incubation of brain microvascular endothelial cells bEnd.3 and glioma cells U87 MG simulates a pathological blood-brain barrier. Once a pathological blood-brain barrier model was formed, U87MG glioma cells in the outer chamber of Transwell were removed, while the tumor cell cultures were remained. Axitinib (10 μM) and an Axitinib analog of phosphatidylinositol kinase (PI3K) inhibitor LY294002 (10 μM) were added to the Transwell chamber. After 24 hours, cell transmembrane resistance was detected by a cell resistance meter. A physiological blood-brain barrier simulated by a Transwell model of brain microvascular endothelial cell bEnd.3 was used as a positive control (n=5).
The physiological blood-brain barrier and the pathological blood-brain barrier as constructed in Method 1 and Method 2 in the Example 1 were used as models, respectively. Once a pathological blood-brain barrier model was formed, U87MG glioma cells in the outer chamber of Transwell were removed, while the tumor cell cultures were remained. […] Cell transmembrane resistance was detected by a cell resistance meter.

[2] = test system: pathological blood-brain barrier; assay: Evans blue permeation into the brain, in situ glioma model; format: in vivo, BABL/c nude mice; settings: glioma nude mice, 10 mg/kg tail vein, Evans blue after 24 hours; vs tumor-bearing control; FIGS. 18 and 19
Protocol: After 24 hours, an Evans blue solution was injected into tail veins at an administration dose of 5 mg/kg.
After 24 hours, an Evans blue solution was injected into tail veins at an administration dose of 5 mg/kg. […] The Evans blue was extracted from the brain tissue with an organic solvent of N,N-dimethylformamide. The result as shown in the figure is the amount of Evans blue permeated into the brain as quantitatively detected by ultraviolet spectrophotometry (n=3).
Male BABL/c nude mice (20±2 g) were used as the model animals. U87-luci glioma cells expressing luciferase were inoculated in the striatum area of nude mice at a concentration of 5×10^5 cells/5 μL by means of a brain stereotaxic instrument (inoculation coordinates, 0.8 mm on the anterior side of bregma, 2 mm on the right side, and 3 mm in depth), to construct an in situ glioma model. […] After 24 hours, an Evans blue solution was injected into tail veins at an administration dose of 5 mg/kg. […] The distribution intensity of Evans blue in the brain tissue was qualitatively observed with a small animal live imaging instrument. The Evans blue was extracted from the brain tissue with an organic solvent of N,N-dimethylformamide. The amount of Evans blue permeated into the brain was quantitatively detected by ultraviolet spectrophotometry.

U87-luci glioma = assay: Glioma growth (bioluminescent imaging) and life cycle, in situ glioma model; format: in vivo, BABL/c nude mice; settings: 10 mg/kg tail vein
Protocol: Administration was performed for 7 consecutive days. Growth of glioma was monitored by a bioluminescent imaging technology. […] A physiological saline group was used as control.
Male BABL/c nude mice (20±2 g) were used as the model animals. U87-luci glioma cells expressing luciferase were inoculated in the striatum area of nude mice at a concentration of 5×10^5 cells/5 μL by means of a brain stereotaxic instrument (inoculation coordinates, 0.8 mm on the anterior side of bregma, 2 mm on the right side, and 3 mm in depth), to construct an in situ glioma model. […] Administration was performed for 7 consecutive days. Growth of glioma was monitored by a bioluminescent imaging technology.

[3] = test system: pathological blood-brain barrier; assay: Evans blue permeation into the brain after treatment, model of Parkinson's disease; format: in vivo, C57/BL6 mice
[4] = test system: model of Parkinson's disease; assay: Movement time within 2 minutes, model of Parkinson's disease; format: in vivo, C57/BL6 mice; settings: FIG. 28
Protocol: After the treatment was accomplished, movement time within 2 minutes (walking, lifting of both forelimbs, washing face, hair grooming and the like) was recorded for each of the test groups (n=5).
After the Axitinib treatment and the levodopa treatment was accomplished, movement time within 2 minutes (walking, lifting of both forelimbs, washing face, hair grooming and the like) was recorded for each of the test groups.

tyrosine hydroxylase = assay: Striatum tyrosine hydroxylase immunohistochemistry, model of Parkinson's disease; settings: FIG. 29
[5] = Axitinib 10 mg/kg 7 days vs levodopa 20 mg/kg 10 days

`CNC(=O)c1ccccc1Sc1ccc2c(/C=C/c3ccccn3)n[nH]c2c1` [Axitinib, N-methyl-2-((3-((1E)-2-(pyridine-2-yl)ethenyl)-1H-indazol-6-yl)sulfanyl)benzamide] was tested, and the “Expression of tight junction protein Claudin-5” value (Claudin-5) was “reduce down-regulation of expression of the blood-brain barrier tight junction protein of Claudin-5”, the Cytotoxicity (U87 MG glioma cells) was “do not produce significant cytotoxicity” and the “Cell transmembrane resistance (blood-brain barrier function)” value [1] was “the blood-brain barrier function is recovered from a pathologically impaired state to a state close to a physiological barrier”. The “Amount of Evans blue permeated into the brain” value [2] was “the amount of Evans blue permeated into the brain is reduced”, the “Growth of glioma in situ” value (U87-luci glioma; 7 consecutive days from Day 4, vs saline control, FIG. 20) was “significantly inhibited” and the “Life cycle of the animal” value (U87-luci glioma; 7 consecutive days, FIG. 21) was “significantly prolonged”. For the same compound, the “Amount of Evans blue permeated into the brain, compared with the levodopa treatment group” value [3, 5] was “significantly lower than that of the levodopa treatment group”, the “Amount of Evans blue permeated into the brain” value ([3]; Axitinib 10 mg/kg tail vein 7 days, levodopa 20 mg/kg intraperitoneally 10 days, vs Parkinson's control, FIGS. 26 and 27) was “reduced to varied degrees” and the “Dyskinesia (movement time), Axitinib compared with levodopa” value [4, 5] was “no difference in their efficacy”. The “Dyskinesia (movement time within 2 minutes)” value ([4]; Axitinib 10 mg/kg 7 days, levodopa 20 mg/kg 10 days, vs Parkinson's control) was “significantly alleviated”, the “Expression of striatum tyrosine hydroxylase, compared with the levodopa treatment group” value (tyrosine hydroxylase; [5]) was “superior to that in the levodopa treatment group” and the “Expression of striatum tyrosine hydroxylase” value (tyrosine hydroxylase; Axitinib 10 mg/kg 7 days, levodopa 20 mg/kg 10 days) was “significantly up-regulated”.
